In patent publication US8471005B2 (Cephalon, Inc., priority 2008, dated 2013):
Like-named read-outs stand apart in the source and are kept apart here.

Columns and labels:
JAK2 = target: T1, JAK2 (Homo sapiens, UniProt O60674); test: Recombinant Human JAK2 Kinase Assay (TRF); assay type: biochemical; details: read-out: JAK2 Potency
T1 construct: host or cells: baculovirus expression system
Summary of the method: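 Baculovirus-expressed JAK2 (15 ng/ml) phosphorylated a biotinylated 15-mer peptide captured on Neutravidin, in 20 mM HEPES pH 7.2, 0.2 μM ATP, 1 mM MnCl2, 0.1% BSA, 2.5% DMSO final, 20 min at room temperature. Phosphoproduct detected by time-resolved fluorescence with Eu-N1-labelled PY100 antibody.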

ALK = target: T2, ALK (Homo sapiens, UniProt Q9UM73); test: ALK Kinase Assay (ELISA/TRF, PLC-γ substrate); assay type: biochemical; details: read-out: ALK Potency
T2 construct: host or cells: baculovirus expression system
Summary of the method: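 Time-resolved fluorescence ELISA using Eu-N1 PT66 antibody to detect phosphorylated PLC-γ (coated at 10 μg/mL). Enzyme at 30 ng/ml ALK; 15 min incubation, 37° C.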

[1] = JAK2 kinase inhibition, 0.2 μM ATP
[2] = ALK kinase inhibition, 1 μM ATP

T2 sequence (Q9UM73 19-1620): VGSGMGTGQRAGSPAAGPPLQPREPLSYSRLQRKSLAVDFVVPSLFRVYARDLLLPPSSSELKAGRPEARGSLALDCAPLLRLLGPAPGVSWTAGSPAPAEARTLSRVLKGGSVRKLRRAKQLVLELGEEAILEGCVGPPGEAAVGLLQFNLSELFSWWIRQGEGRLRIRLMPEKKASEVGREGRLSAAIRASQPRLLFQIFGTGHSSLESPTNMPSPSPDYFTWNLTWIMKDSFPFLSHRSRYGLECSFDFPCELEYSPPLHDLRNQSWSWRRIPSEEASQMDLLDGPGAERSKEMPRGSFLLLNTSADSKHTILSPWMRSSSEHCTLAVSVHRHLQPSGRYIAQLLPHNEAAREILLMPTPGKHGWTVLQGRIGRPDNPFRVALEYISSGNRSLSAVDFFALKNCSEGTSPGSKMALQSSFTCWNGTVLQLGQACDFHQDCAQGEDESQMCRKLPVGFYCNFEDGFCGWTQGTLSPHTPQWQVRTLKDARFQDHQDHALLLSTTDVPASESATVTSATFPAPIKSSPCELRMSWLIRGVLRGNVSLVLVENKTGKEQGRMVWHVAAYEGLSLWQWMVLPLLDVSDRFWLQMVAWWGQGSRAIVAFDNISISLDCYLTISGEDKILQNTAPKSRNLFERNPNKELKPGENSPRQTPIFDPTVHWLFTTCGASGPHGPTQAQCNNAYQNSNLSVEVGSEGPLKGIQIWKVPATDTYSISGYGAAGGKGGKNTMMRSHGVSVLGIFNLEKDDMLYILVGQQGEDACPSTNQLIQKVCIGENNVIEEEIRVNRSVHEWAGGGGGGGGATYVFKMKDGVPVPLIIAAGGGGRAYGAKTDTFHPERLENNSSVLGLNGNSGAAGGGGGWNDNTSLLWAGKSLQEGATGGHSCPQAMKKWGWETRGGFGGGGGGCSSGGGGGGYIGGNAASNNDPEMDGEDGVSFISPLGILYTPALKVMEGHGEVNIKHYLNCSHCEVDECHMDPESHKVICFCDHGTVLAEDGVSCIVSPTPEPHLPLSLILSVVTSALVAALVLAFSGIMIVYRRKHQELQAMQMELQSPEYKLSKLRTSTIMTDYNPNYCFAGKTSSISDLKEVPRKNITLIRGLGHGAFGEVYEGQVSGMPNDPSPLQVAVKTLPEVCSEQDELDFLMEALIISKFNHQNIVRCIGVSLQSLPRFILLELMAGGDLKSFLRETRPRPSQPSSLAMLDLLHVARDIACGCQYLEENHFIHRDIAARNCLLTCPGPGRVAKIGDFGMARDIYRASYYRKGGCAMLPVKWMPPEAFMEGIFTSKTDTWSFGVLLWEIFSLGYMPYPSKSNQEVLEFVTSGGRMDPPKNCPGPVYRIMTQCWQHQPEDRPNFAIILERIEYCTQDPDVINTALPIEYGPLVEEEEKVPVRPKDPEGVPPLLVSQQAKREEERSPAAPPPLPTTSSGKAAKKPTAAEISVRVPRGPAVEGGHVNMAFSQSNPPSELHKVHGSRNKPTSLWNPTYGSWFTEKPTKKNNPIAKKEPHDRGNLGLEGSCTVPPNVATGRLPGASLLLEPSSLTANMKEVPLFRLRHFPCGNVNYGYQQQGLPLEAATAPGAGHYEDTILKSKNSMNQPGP
T1 sequence (O60674 whole entry): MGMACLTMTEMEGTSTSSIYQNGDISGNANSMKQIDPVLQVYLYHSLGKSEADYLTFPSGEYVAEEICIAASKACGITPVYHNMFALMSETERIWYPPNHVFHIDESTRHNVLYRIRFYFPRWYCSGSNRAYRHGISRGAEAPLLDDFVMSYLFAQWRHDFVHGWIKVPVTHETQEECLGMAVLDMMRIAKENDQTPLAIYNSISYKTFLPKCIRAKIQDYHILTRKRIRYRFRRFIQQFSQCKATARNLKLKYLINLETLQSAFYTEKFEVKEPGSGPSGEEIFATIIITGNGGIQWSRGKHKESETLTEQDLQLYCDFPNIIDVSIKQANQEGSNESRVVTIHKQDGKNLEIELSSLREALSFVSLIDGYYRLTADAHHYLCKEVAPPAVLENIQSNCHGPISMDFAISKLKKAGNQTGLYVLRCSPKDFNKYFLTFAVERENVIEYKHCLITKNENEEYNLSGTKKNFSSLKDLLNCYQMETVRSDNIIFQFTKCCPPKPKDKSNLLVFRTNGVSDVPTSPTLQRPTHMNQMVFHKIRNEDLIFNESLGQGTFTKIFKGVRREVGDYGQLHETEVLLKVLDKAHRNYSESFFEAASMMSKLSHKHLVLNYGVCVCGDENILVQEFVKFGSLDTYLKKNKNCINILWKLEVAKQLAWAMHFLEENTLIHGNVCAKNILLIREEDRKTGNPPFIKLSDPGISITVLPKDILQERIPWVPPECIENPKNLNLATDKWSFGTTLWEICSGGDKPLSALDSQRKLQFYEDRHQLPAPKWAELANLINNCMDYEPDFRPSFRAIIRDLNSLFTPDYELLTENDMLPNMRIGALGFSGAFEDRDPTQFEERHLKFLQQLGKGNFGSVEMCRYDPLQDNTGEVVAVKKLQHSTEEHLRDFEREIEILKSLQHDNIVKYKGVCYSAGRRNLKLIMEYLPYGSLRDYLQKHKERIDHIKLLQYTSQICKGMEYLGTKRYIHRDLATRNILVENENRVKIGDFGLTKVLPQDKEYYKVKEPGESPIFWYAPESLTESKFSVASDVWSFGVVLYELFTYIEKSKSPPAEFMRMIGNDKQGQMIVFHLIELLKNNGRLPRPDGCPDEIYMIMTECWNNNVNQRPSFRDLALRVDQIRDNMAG

Row | Molecule | IC50 (JAK2; JAK2 Kinase Inhibition) | IC50 (ALK; ALK Kinase Inhibition) | IC50 (JAK2; [1]) | IC50 (ALK; [2])
1 | COc1cc(N2CCC(C)(N3CCOCC3)CC2)ccc1Nc1ncc2ccc(-c3ccccc3N(C)S(C)(=O)=O)n2n1 [Example 1468, N-(2-{2-[2-Methoxy-4-(4-methyl-4-morpholin-4-yl-piperidin-1-yl)-phenylamino]-pyrrolo[2,1-f][1,2,4]triazin-7-yl}-phenyl)-N-methyl-methanesulfonamide] | 100 to 1000 nM | < 100 nM | – | –
2 | CN1CCN(c2ccc(Nc3ncc4ccc(-c5ccc(CN6CCS(=O)(=O)CC6)nc5)n4n3)cc2)CC1 [Example 1056, {7-[6-(1,1-Dioxo-1$1(6)-thiomorpholin-4-ylmethyl)-pyridin-3-yl]-pyrrolo[2,1-f][1,2,4]triazin-2-yl}-[4-(4-methyl-piperazin-1-yl)-phenyl]-amine] | – | – | < 100 nM | 100 to 1000 nM
3 | CC(C)(C)NS(=O)(=O)c1cccc(-c2ccc3cnc(Nc4ccc(C5CNCCN5)cc4)nn23)c1 (stereo not drawn) [Example 1528, N-tert-Butyl-3-[2-(4-piperazin-2-yl-phenylamino)-pyrrolo[2,1-f][1,2,4]triazin-7-yl]-benzenesulfonamide] | < 100 nM | 100 to 1000 nM | – | –
4 | COc1ccccc1-c1ccc2cnc(Nc3ccc4nc[nH]c4c3)nn12 [Example 1306, (3H-Benzimidazol-5-yl)-[7-(2-methoxy-phenyl)-pyrrolo[2,1-f][1,2,4]triazin-2-yl]-amine] | – | – | < 100 nM | 100 to 1000 nM
5 | COc1ccccc1-c1ccc2cnc(Nc3cnn(CCN4CCOCC4)c3)nn12 [Example 1190, [7-(2-Methoxy-phenyl)-pyrrolo[2,1-f][1,2,4]triazin-2-yl]-[1-(2-morpholin-4-yl-ethyl)-1H-pyrazol-4-yl]-amine] | – | – | < 100 nM | 1000 to 10000 nM
6 | COc1ccccc1-c1ccc2cnc(Nc3ccc(OCCN4CCOCC4)cc3)nn12 [Example 128, [7-(2-Methoxy-phenyl)-pyrrolo[2,1-f][1,2,4]triazin-2-yl]-[4-(2-morpholin-4-yl-ethoxy)-phenyl]-amine] | < 100 nM | < 100 nM | – | –
7 | COc1ccccc1-c1ccc2cnc(Nc3ccc(C4CCN(C[C@H](O)CO)CC4)cc3)nn12 [Example 1125, (S)-3-(4-{4-[7-(2-Methoxy-phenyl)-pyrrolo[2,1-f][1,2,4]triazin-2-ylamino]-phenyl}-piperidin-1-yl)-propane-1,2-diol] | – | – | < 100 nM | < 100 nM
8 | COc1ccc(-c2ccc3cnc(Nc4ccc(C5C(=O)N(C)CCN5C)cc4)nn23)cn1 (stereo not drawn) [Example 1072, 3-{4-[7-(6-Methoxy-pyridin-3-yl)-pyrrolo[2,1-f][1,2,4]triazin-2-ylamino]-phenyl}-1,4-dimethyl-piperazin-2-one] | – | – | < 100 nM | 1000 to 10000 nM
9 | COc1cc(N2CCN(C[C@@H](C)O)CC2)ccc1Nc1ncc2ccc(-c3cc(Cl)ccc3OC)n2n1 [Example 756, (R)-1-(4-{4-[7-(5-Chloro-2-methoxy-phenyl)-pyrrolo[2,1-f][1,2,4]triazin-2-ylamino]-3-methoxy-phenyl}-piperazin-1-yl)-propan-2-ol] | – | – | < 100 nM | < 100 nM
10 | CN1CCCC1COc1cccc(Nc2ncc3ccc(-c4cccc(S(=O)(=O)NC(C)(C)C)c4)n3n2)c1 (stereo not drawn) [Example 1005, N-tert-Butyl-3-{2-[3-(1-methyl-pyrrolidin-2-ylmethoxy)-phenylamino]-pyrrolo[2,1-f][1,2,4]triazin-7-yl}-benzenesulfonamide] | – | – | < 100 nM | < 100 nM
11 | CN(C)c1cccc(Nc2ncc3ccc(-c4cccc(Cl)c4)n3n2)c1 [Example 159, N-[7-(3-Chloro-phenyl)-pyrrolo[2,1-f][1,2,4]triazin-2-yl]-N′,N′-dimethyl-benzene-1,3-diamine] | 1000 to 10000 nM | > 10000 nM | – | –
12 | CN1CCN(c2ccc(Nc3ncc4ccc(-c5cnccc5NS(C)(=O)=O)n4n3)cc2)CC1 [Example 1218, N-(3-{2-[4-(4-Methyl-piperazin-1-yl)-phenylamino]-pyrrolo[2,1-f][1,2,4]triazin-7-yl}-pyridin-4-yl)-methanesulfonamide] | – | – | 100 to 1000 nM | 1000 to 10000 nM
13 | c1cncc(-c2ccc3cnc(Nc4ccc(N5CCC(N6CCOCC6)CC5)cc4)nn23)c1 [Example 337, [4-(4-Morpholin-4-yl-piperidin-1-yl)-phenyl]-(7-pyridin-3-yl-pyrrolo[2,1-f][1,2,4]triazin-2-yl)-amine] | < 100 nM | 100 to 1000 nM | – | –
14 | COCCNc1cccc(-c2ccc3cnc(Nc4cccc(NC(C)=O)c4)nn23)c1 [Example 988, N-(3-{7-[3-(2-Methoxy-ethylamino)-phenyl]-pyrrolo[2,1-f][1,2,4]triazin-2-ylamino}-phenyl)-acetamide] | – | – | < 100 nM | 1000 to 10000 nM
15 | CS(=O)(=O)Nc1cccc(-c2ccc3cnc(Nc4ccc(N5CCOCC5)cc4)nn23)c1 [Example 201, N-{3-[2-(4-Morpholin-4-yl-phenylamino)-pyrrolo[2,1-f][1,2,4]triazin-7-yl]-phenyl}-methanesulfonamide] | < 100 nM | 100 to 1000 nM | – | –
16 | CN(c1ccccc1-c1ccc2cnc(Nc3ccn(CCN4CCOCC4)n3)nn12)S(C)(=O)=O [Example 1186, N-Methyl-N-(2-{2-[1-(2-morpholin-4-yl-ethyl)-1H-pyrazol-3-ylamino]-pyrrolo[2,1-f][1,2,4]triazin-7-yl}-phenyl)-methanesulfonamide] | – | – | < 100 nM | 100 to 1000 nM
17 | Cn1cc(-c2ccc3cnc(Nc4cccc(N5CCOCC5)c4)nn23)cn1 [Example 198, [7-(1-Methyl-1H-pyrazol-4-yl)-pyrrolo[2,1-f][1,2,4]triazin-2-yl]-(3-morpholin-4-yl-phenyl)-amine] | < 100 nM | 100 to 1000 nM | – | –
18 | CC(C)S(=O)(=O)c1cccc(-c2ccc3cnc(Nc4ccc(Cl)c(OC[C@H]5CCCN5)c4)nn23)c1 [Example 1016, [4-Chloro-3-((R)-1-pyrrolidin-2-ylmethoxy)-phenyl]-{7-[3-(propane-2-sulfonyl)-phenyl]-pyrrolo[2,1-f][1,2,4]triazin-2-yl}-amine] | – | – | < 100 nM | 100 to 1000 nM
19 | N-{2-[2-(2-Oxo-2,3-dihydro-benzooxazol-6-ylamino)pyrrolo[2,1-f][1,2,4]triazin-7-yl]phenyl}methanesulfonamide [Example 629] | – | – | < 100 nM | 100 to 1000 nM
20 | Clc1cccc(-c2ccc3cnc(Nc4ccc5ncccc5c4)nn23)c1 [Example 177, [7-(3-Chloro-phenyl)-pyrrolo[2,1-f][1,2,4]triazin-2-yl]-quinolin-6-yl-amine] | < 100 nM | 100 to 1000 nM | – | –
21 | COc1ccc2c(c1)cc1cnc(Nc3ccc(N4CCOCC4)cc3)nn12 [Example 268, (7-Methoxy-[1,2,4]triazino[1,6-a]indol-2-yl)-(4-morpholin-4-yl-phenyl)-amine] | < 100 nM | > 10000 nM | – | –
22 | c1cc(Nc2ncc3cccn3n2)cc(N2CCOCC2)c1 [Example 174, (3-Morpholin-4-yl-phenyl)-pyrrolo[2,1-f][1,2,4]triazin-2-yl-amine] | 100 to 1000 nM | > 10000 nM | – | –
23 | CS(=O)(=O)c1ccc(-c2ccc3cnc(Nc4ccc(-c5cccnc5)cc4)nn23)cc1 [Example 1089, [7-(4-Methanesulfonyl-phenyl)-pyrrolo[2,1-f][1,2,4]triazin-2-yl]-(4-pyridin-3-yl-phenyl)-amine] | – | – | < 100 nM | 1000 to 10000 nM
24 | COc1cc(Nc2ncc3ccc(-c4cccc(S(C)(=O)=O)c4)n3n2)cc(OC)c1OC [Example 185, [7-(3-Methanesulfonyl-phenyl)-pyrrolo[2,1-f][1,2,4]triazin-2-yl]-(3,4,5-trimethoxy-phenyl)-amine] | < 100 nM | 100 to 1000 nM | – | –
25 | COc1cc(N2CCC(N3CCOCC3)CC2)ccc1Nc1ncc2ccc(-c3c(F)cccc3OC)n2n1 [Example 509, [7-(2-Fluoro-6-methoxy-phenyl)-pyrrolo[2,1-f][1,2,4]triazin-2-yl]-[2-methoxy-4-(4-morpholin-4-yl-piperidin-1-yl)-phenyl]-amine] | – | – | < 100 nM | < 100 nM
26 | CC(=O)Nc1cc(Nc2ncc3ccc(-c4ccc(S(C)(=O)=O)cc4)n3n2)ccc1C(C)(C)C [Example 326, N-{2-tert-Butyl-5-[7-(4-methanesulfonyl-phenyl)-pyrrolo[2,1-f][1,2,4]triazin-2-ylamino]-phenyl}-acetamide] | < 100 nM | > 10000 nM | – | –
27 | COc1ccc(Cl)cc1-c1ccc2cnc(Nc3cccc(C(N)=O)c3)nn12 [Example 166, 3-[7-(5-Chloro-2-methoxy-phenyl)-pyrrolo[2,1-f][1,2,4]triazin-2-ylamino]-benzamide] | < 100 nM | 1000 to 10000 nM | – | –
28 | COc1ccccc1-c1ccc2cnc(Nc3ccc4c(c3OC)CCC(N3CCOCC3)CC4)nn12 (stereo not drawn) [Example 1452, (1-Methoxy-7-morpholin-4-yl-6,7,8,9-tetrahydro-5H-benzo cyclohepten-2-yl)-[7-(2-methoxy-phenyl)-pyrrolo[2,1-f][1,2,4]triazin-2-yl]-amine] | 100 to 1000 nM | < 100 nM | – | –
29 | CC(=O)Nc1cccc(Nc2ncc3ccc(-c4cccc(COC(C)(C)C)c4)n3n2)c1 [Example 1559, N-{3-[7-(3-tert-Butoxymethyl-phenyl)-pyrrolo[2,1-f][1,2,4]triazin-2-ylamino]-phenyl}-acetamide] | < 100 nM | 1000 to 10000 nM | – | –
30 | CC(=O)N1CCCCc2ccc(Nc3ncc4ccc(-c5ccccc5N(C)S(C)(=O)=O)n4n3)cc21 [Example 630, N-{2-[2-(1-Acetyl-2,3,4,5-tetrahydro-1H-benzo[b]azepin-8-ylamino)-pyrrolo[2,1-f][1,2,4]triazin-7-yl]phenyl}-N-methylmethanesulfonamide] | – | – | < 100 nM | 1000 to 10000 nM
